Data on one molecule can be found in US4997652A, “Biodegradable ocular implants” (priority 1989, dated 1991).

A short description of one data set: in vivo. Particulars: rabbit. Details: species or system New Zealand white rabbits. Here is the method:
1. 50 μg/0.1 ml doxorubicin was injected into the AC of 10 New Zealand white rabbits. The AC was tapped for doxorubicin assay.

In data set [1] the test system is eye. Nature of the data set: Ocular toxicity observation after AC injection of unencapsulated doxorubicin. The format is in vivo, New Zealand white rabbits. The procedure: 2. 50 μg/0.10 ml doxorubicin was injected into the […] in each of two rabbits. The contralateral eye was given 0.10 ml of normal saline.
The nature of data set [2]: Residual vitreous doxorubicin after injection of doxorubicin into the PC. In kind it is in vivo, rabbits. The procedure: 1. 50 μg/0.1 ml doxorubicin was injected into the posterior chamber (PC) of each of 10 rabbits. The contralateral eye served as control.
The test system of data set [3] is eye. Nature of the data set: Clinical observation of eye after PC injection of doxorubicin. The format is in vivo, rabbits. The note with it: free drug. Here is the method:
2. 50 μg/0.10 ml of doxorubicin was injected into one eye of two animals for clinical observation for one week. Saline control was injected into the contralateral eye.

Setting [4] is: 50 ug into PC right eye, free drug, 0 hours.

Each structure is given as a SMILES string. Where “and” joins values, the source holds several entries; their conditions need not be identical. Equal values may be shown once. Read-outs that look alike come from different tables or passages of the source.

As for `COc1cccc2c1C(=O)c1c(O)c3c(c(O)c1C2=O)C[C@@](O)(C(=O)CO)C[C@@H]3O[C@H]1C[C@H](N)[C@H](O)[C@H](C)O1` [doxorubicin], the half-life in “in vivo” is roughly 1 h; in data set [2] (rabbit, vitreous, 0.05 mg, PC injection, 50 ug, read-out: halflife of free doxorubicin (converted)), roughly 3 h. Moreover, the ocular toxicity entry in the data set with eye [1] is “causes ocular inflammation and corneal edema”. Besides, the “time of ocular inflammation and corneal edema after AC injection” value with eye [1] lay in the range of 2 to 3 days. In addition, the “Residual vitreous doxorubicin, Mean ± SD” value in data set [2] (setting [4]) amounted to 8.55 ± 0.24 µg/mL. For the same molecule, the “Residual vitreous doxorubicin, single sample” value is 8.40 µg/mL and 8.74 µg/mL in data set [2] (setting [4]); 4.65 µg/mL in data set [2] (50 ug into PC right eye, free drug, 2 hours, 120 min); 3.4 µg/mL in data set [2] (50 ug into PC right eye, free drug, 4 hours, 240 min); 0.75 µg/mL in data set [2] (50 ug into PC right eye, free drug, 8 hours, 480 min); 0.21 µg/mL in data set [2] (50 ug into PC right eye, free drug, 16 hours, 960 min). Moreover, the concentration at 2 h in data set [2] (rabbit, vitreous, 0.05 mg, 50 ug into PC right eye, free drug, 2 hours, read-out: Residual vitreous doxorubicin, Mean ± SD) came out at 5590 ± 1340 ng/mL; in data set [2] (rabbit, vitreous, 0.05 mg, 50 ug into PC right eye, free drug, 2 hours, read-out: Residual vitreous doxorubicin, single sample) it was 6540 ng/mL. In addition, the concentration at 4 h was 3850 ± 640 ng/mL in data set [2] (rabbit, vitreous, 0.05 mg, 50 ug into PC right eye, free drug, 4 hours, read-out: Residual vitreous doxorubicin, Mean ± SD) and 4300 ng/mL in data set [2] (rabbit, vitreous, 0.05 mg, 50 ug into PC right eye, free drug, 4 hours, read-out: Residual vitreous doxorubicin, single sample). Further, the concentration at 8 h was 860 ± 160 ng/mL in data set [2] (rabbit, vitreous, 0.05 mg, 50 ug into PC right eye, free drug, 8 hours, read-out: Residual vitreous doxorubicin, Mean ± SD) and 980 ng/mL in data set [2] (rabbit, vitreous, 0.05 mg, 50 ug into PC right eye, free drug, 8 hours, read-out: Residual vitreous doxorubicin, single sample). For the same molecule, the concentration at 16 h in data set [2] (rabbit, vitreous, 0.05 mg, 50 ug into PC right eye, free drug, 16 hours, read-out: Residual vitreous doxorubicin, Mean ± SD) worked out at 240 ± 40 ng/mL; in data set [2] (rabbit, vitreous, 0.05 mg, 50 ug into PC right eye, free drug, 16 hours, read-out: Residual vitreous doxorubicin, single sample), 260 ng/mL. In addition, in the data set with eye [3], the “clinical tolerance of PC injection” value was “well tolerated”. In addition, the evidence of toxicity result with eye [3] is recorded as “No evidence of toxicity”.
